Series [1] can be described thus: Plasma clearance following IV dosing, CD1 mice (Example 3 of WO 2010/086646 protocol). In kind it is in vivo. The settings on record: mouse, male CD1 mice, 5 mg/kg intravenously, 10% NMP/90% water. As to the method: Compound was administered both intravenously and orally to mice. Blood samples were collected at up to 7 time points over 8 hours and plasma was analysed by LC-MS/MS to determine the concentration of compound at each time point. The plasma time concentration profile was delivered along with the main calculated PK parameters (Co, Cmax, AUC-last, t1/2, tmax, Vd, and CL).
Three male CD1 mice, 25-30 g, were dosed per administration route per timepoint. Compound was administered both orally (10 mg compound per kg of body weight) and intravenously (5 mg compound per kg body weight). The excipient used was 10% NMP/90% water. Animals were given free access to food throughout the study.
At the following time points, the animals were anaesthetized, blood collected in heparinized tubes and animals were sacrificed:
Blood samples were centrifuged to obtain the plasma, which was transferred to a separate, labelled container. Aliquots from the individual time points for the three animals were analyzed singly. Protein was precipitated by adding three volumes of methanol and centrifuging for 30 min at 4° C. […] The plasma samples were quantified by LC-MS/MS and the concentration of compound in plasma was reported in μg/mL. Pharmacokinetic parameters were calculated employing non-compartmental model analysis.

Series [2] can be described thus: Plasma clearance following IV dosing, CD1 mouse (Example A of WO 2014/072714 protocol). In kind it is in vivo. Conditions: male CD1 mouse, 5 mg/kg I.V., 10% DMSO, 15% Cremophor, 75% Saline. On the procedure: Formulation: Solutions in 10% DMSO, 15% Cremophor, 75% Saline
Dosing: 10 mg/kg P.O. and 5 mg/kg I.V.
Protocol: • n=3 male mice per time point per route; • Terminal blood sampling at 8 time points (5 min, 10 min, 0.5 hr, 1 hr, 3 hr, 6 hr, 8 hr and, 24 hr); • Collection of plasma, bio-analysis and report of AUC, AUMC, Vss, CL, half life, MRT and bioavailability.

A further series concerns the target T1, HDAC6 (Homo sapiens, UniProt Q9UBN7).
T1 sequence (Q9UBN7 1-1215): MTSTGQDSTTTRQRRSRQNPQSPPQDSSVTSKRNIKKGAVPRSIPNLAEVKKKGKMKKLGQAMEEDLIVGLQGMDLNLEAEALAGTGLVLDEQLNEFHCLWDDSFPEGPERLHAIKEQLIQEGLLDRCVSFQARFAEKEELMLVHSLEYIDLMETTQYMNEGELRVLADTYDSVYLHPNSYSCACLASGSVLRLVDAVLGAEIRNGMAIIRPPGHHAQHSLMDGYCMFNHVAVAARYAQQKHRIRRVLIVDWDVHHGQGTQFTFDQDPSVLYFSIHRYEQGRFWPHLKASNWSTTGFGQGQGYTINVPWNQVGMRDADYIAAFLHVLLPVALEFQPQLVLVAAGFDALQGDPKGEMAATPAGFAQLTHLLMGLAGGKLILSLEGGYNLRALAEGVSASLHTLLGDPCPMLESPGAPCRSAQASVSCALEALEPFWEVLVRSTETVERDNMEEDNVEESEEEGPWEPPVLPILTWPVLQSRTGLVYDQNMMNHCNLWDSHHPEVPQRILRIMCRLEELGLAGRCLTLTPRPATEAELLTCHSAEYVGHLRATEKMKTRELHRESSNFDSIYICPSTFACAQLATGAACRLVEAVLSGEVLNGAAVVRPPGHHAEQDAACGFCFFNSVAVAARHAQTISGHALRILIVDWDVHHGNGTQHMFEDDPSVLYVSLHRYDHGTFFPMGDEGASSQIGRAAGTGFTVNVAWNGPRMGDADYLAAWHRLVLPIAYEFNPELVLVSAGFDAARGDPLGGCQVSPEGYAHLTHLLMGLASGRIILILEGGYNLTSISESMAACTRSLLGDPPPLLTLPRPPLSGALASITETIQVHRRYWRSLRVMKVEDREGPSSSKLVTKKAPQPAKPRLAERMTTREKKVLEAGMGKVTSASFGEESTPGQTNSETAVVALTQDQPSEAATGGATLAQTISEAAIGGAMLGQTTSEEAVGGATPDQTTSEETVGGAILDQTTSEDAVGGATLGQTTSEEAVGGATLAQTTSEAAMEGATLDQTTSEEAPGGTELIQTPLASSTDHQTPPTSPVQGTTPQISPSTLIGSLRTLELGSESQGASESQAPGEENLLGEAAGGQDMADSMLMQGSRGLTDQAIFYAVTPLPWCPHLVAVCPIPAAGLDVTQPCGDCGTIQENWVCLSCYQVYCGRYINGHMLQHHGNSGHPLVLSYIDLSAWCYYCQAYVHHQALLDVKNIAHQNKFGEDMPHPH
Put plainly: Biochemical Selectivity: HDAC6 inhibition. From the text:
(§1) Compounds of the invention may be tested for HDAC inhibitory activity by any suitable assay, e.g. the assay described in WO2008/062201.

A further series has as its target HDAC1 (Homo sapiens, UniProt Q13547). Put plainly: Biochemical Selectivity: HDAC1 inhibition.
Source text: as §1

Series [3] is described as follows: Plasma clearance following IV dosing, Balb/c mice (Example D protocol). Type of series: in vivo. The settings on record: mouse, male Balb/c mice, 3 mg/kg i.v., 5% NMP, 5% solutol HS-15 in 90% HPβCD solution. On the procedure: A group of eighteen male Balb/c mice were divided into two groups Group 1 (3 mg/kg; i.v.), Group 2 (10 mg/kg; p.o.) with each group comprising of nine mice. Animals in Group 1 were administered intravenously with Example D solution formulation in 5% NMP, 5% solutol HS-15 in 90% HPβCD solution (20% HPβCD in RO water) at 3 mg/kg dose while animals in Group 2 were administered orally with 10 mg/kg solution formulation of Example D in 5% NMP, 5% solutol HS-15 in 90% HPβCD solution (20% HPβCD in RO water). Blood samples (approximately 60 μL) were collected from retro orbital plexus under light isoflurane anesthesia such that the samples were obtained at pre-dose, 0.08, 0.25, 0.5, 1, 2, 4, 8 and 24 hr (i.v.) and pre-dose, 0.25, 0.5, 1, 2, 4, 6, 8 and 24 hr (p.o.). The blood samples were collected from set of three mice at each time point in labeled micro centrifuge tube containing K2EDTA as anticoagulant. Plasma samples were separated by centrifugation of whole blood and stored below −70° C. until bioanalysis. All samples were processed for analysis by protein precipitation using acetonitrile (ACN) and analyzed with fit for purpose LC/MS/MS method (LLOQ: 1.27 ng/mL). Pharmacokinetic parameters were calculated using the non-compartmental analysis tool of Phoenix WinNonlin (Version 6.3).

Structures are written as SMILES.

Sequence of HDAC1 (Q13547 whole entry, species assumed): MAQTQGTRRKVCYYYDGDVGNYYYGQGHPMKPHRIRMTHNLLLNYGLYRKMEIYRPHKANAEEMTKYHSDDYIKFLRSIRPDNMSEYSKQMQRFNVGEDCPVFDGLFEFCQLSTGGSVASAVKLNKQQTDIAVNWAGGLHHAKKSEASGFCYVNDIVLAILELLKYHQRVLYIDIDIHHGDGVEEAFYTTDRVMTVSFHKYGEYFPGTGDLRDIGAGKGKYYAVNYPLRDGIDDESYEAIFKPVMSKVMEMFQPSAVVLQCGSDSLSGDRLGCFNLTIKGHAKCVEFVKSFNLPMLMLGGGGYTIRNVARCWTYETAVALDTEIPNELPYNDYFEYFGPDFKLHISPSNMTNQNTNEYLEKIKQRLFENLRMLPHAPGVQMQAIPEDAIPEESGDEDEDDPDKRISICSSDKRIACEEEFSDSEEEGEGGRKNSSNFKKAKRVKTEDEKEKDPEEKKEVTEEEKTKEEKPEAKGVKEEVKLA

Turning to `O=C(CCCCCCN(c1ccccn1)c1ccccn1)NO` [Example 3 of WO 2010/086646], the clearance in series [1] is 374 mL/min/kg. For `Cc1nsc(N(CCCCCCC(=O)NO)c2ccccn2)n1` [Example A of WO 2014/072714], the clearance in series [2] is 253 mL/min/kg. Turning to `O=C(CCCCCCN(c1cnccn1)c1cnccn1)NO` [Example A, 7-[Bis(pyrazin-2-yl)amino]-N-hydroxyheptanamide], the IC50 at HDAC6 is ≤ 100 nM; on HDAC1, > 1000 nM. Consider `O=C(CCCCCCN(c1cnccn1)c1nccn2ncnc12)NO` [Example B], for which the concentration for half-maximal inhibition (IC50) was ≤ 100 nM against HDAC6 and > 1000 nM on HDAC1. Taken in the same sequence, the figures for `O=C(CCCCCCN(c1cnccn1)c1ccn2nccc2n1)NO` [Example C, N-Hydroxy-7-[(pyrazin-2-yl)({pyrazolo[1,5-a]pyrimidin-5-yl})amino]heptanamide] were ≤ 100 nM and 100 to 1000 nM.

On to `O=C(CCCCCCN(c1cnccn1)c1ccc(C(F)(F)F)nn1)NO` [Example D, N-Hydroxy-7-[(pyrazin-2-yl)[6-(trifluoromethyl)pyridazin-3-yl]amino]heptanamide], for which the clearance in series [3] was 48.6 mL/min/kg. The IC50 against HDAC6 is ≤ 100 nM; against HDAC1, 100 to 1000 nM. As to `COc1ccc(N(CCCCCCC(=O)NO)c2cnccn2)nn1` [Example E, N-Hydroxy-7-[(6-methoxypyridazin-3-yl)(pyrazin-2-yl)amino]heptanamide], the results for the half-maximal inhibitory concentration (IC50) on HDAC6 and against HDAC1 were ≤ 100 nM and 100 to 1000 nM, respectively. Taken in the same sequence, the figures for `O=C(CCCCCCN(c1cnccn1)c1ccc2nccn2n1)NO` [Example F, N-Hydroxy-7-({imidazo[1,2-b]pyridazin-6-yl}(pyrazin-2-yl)amino) heptanamide] were ≤ 100 nM and 100 to 1000 nM. Consider `Cc1nsc(N(CCCCCCC(=O)NO)c2ccnc(N3CCOCC3)n2)n1` [Example G, N-Hydroxy-7-[(3-methyl-1,2,4-thiadiazol-5-yl)[2-(morpholin-4-yl)pyrimidin-4-yl]amino]heptanamide], for which the IC50 against HDAC6 is ≤ 100 nM; against HDAC1 it was 100 to 1000 nM.

`O=C(CCCCCCN(c1cnccn1)c1ncncc1F)NO` [Example H, 7-[(5-Fluoropyrimidin-4-yl)(pyrazin-2-yl)amino]-N-hydroxyheptanamide]: the values for the IC50 on HDAC6 and at HDAC1 were ≤ 100 nM and > 1000 nM, respectively. `CN(C)c1cc(N(CCCCCCC(=O)NO)c2cnccn2)ncn1` [Example I, 7-{[6-(Dimethylamino)pyrimidin-4-yl](pyrazin-2-yl)amino}-N-hydroxyheptanamide]: the results for the IC50 against HDAC6 and against HDAC1 were ≤ 100 nM and > 1000 nM, respectively.

For the molecule `O=C(CCCCCCN(c1cnccn1)c1ncnc2occc12)NO` [Example J, 7-({Furo[2,3-d]pyrimidin-4-yl}(pyrazin-2-yl)amino)-N-hydroxyheptanamide], the values for the 50% inhibitory concentration (IC50) against HDAC6 and against HDAC1 were ≤ 100 nM and > 1000 nM, respectively.

`O=C(CCCCCCN(c1ccncn1)c1cnccn1)NO` [Example K, N-Hydroxy-7-[(pyrazin-2-yl)(pyrimidin-4-yl)amino]heptanamide]: the IC50 at HDAC6 and against HDAC1 was 100 to 1000 nM each time. As to `Cc1cc(C(=O)N(C)C)nc(N(CCCCCCC(=O)NO)c2nc(C)ns2)n1` [Example L, 2-{[6-(hydroxycarbamoyl)hexyl](3-methyl-1,2,4-thiadiazol-5-yl)amino}-N,N,6-trimethylpyrimidine-4-carboxamide], the IC50 at HDAC6 was ≤ 100 nM; against HDAC1 it was 100 to 1000 nM. For the molecule `COCc1cc(N(CCCCCCC(=O)NO)c2nc(C)ns2)ncn1` [Example M, N-hydroxy-7-{[6-(methoxymethyl)pyrimidin-4-yl](3-methyl-1,2,4-thiadiazol-5-yl)amino}heptanamide], the values for the IC50 at HDAC6 and at HDAC1 were ≤ 100 nM and > 1000 nM, respectively. Take `Cn1ccc2ncnc(N(CCCCCCC(=O)NO)c3cnccn3)c21` [Example N, N-hydroxy-7-({5-methyl-5H-pyrrolo[3,2-d]pyrimidin-4-yl}(pyrazin-2-yl)amino) heptanamide]: the IC50 against HDAC6 was ≤ 100 nM; against HDAC1 it was > 1000 nM. `CN(C)c1ccc(N(CCCCCCC(=O)NO)c2cnccn2)nn1` [Example O, 7-{[6-(dimethylamino)pyridazin-3-yl](pyrazin-2-yl)amino}-N-hydroxyheptanamide]: the half-inhibitory concentration (IC50) on HDAC6 is ≤ 100 nM; against HDAC1, 100 to 1000 nM. For `Cn1ncc2ncnc(N(CCCCCCC(=O)NO)c3cnccn3)c21` [Example P, N-hydroxy-7-({1-methyl-1H-pyrazolo[4,3-d]pyrimidin-7-yl}(pyrazin-2-yl)amino)heptanamide], the half-maximal inhibitory concentration (IC50) on HDAC6 is ≤ 100 nM; against HDAC1, > 1000 nM.

Regarding `CN(C)c1cnc(N(CCCCCCC(=O)NO)c2cnccn2)cn1` [Example Q, 7-{[5-(dimethylamino)pyrazin-2-yl](pyrazin-2-yl)amino}-N-hydroxyheptanamide], the values for the half-inhibitory concentration (IC50) on HDAC6 and against HDAC1 were ≤ 100 nM and 100 to 1000 nM, respectively.

As for `O=C(CCCCCCN(c1cncnc1)c1cnccn1)NO` [Example R, N-hydroxy-7-[(pyrazin-2-yl)(pyrimidin-5-yl)amino]heptanamide], the IC50 against HDAC6 is ≤ 100 nM; against HDAC1 it was > 1000 nM. The corresponding values for `Cc1noc(N(CCCCCCC(=O)NO)c2cncc(N3CCOCC3)n2)n1` [Example S, N-hydroxy-7-[(3-methyl-1,2,4-oxadiazol-5-yl)[6-(morpholin-4-yl)pyrazin-2-yl]amino]heptanamide] are ≤ 100 nM and > 1000 nM.

By clearance is commonly meant the rate of elimination divided by the concentration. A lower clearance goes with inefficient removal. Usually IC50 stands for the midpoint of a concentration-inhibition curve. Read a high IC50 as a need for much substance.

These data come from patent publication US10407435B2, “Diheteroaryl histone deacetylase inhibitors and their use in therapy” (Karus Therapeutics Limited, priority 2014, dated 2019).
